Results taken from US9801925B2, “Potentiation of glucose elimination” (MannKind Corporation, priority 1999, dated 2017).

Assay: Excretion of FDKP after pulmonary administration of Technosphere particles
Assay type: in vivo
Description: Technosphere® refers to a diketopiperazine-based drug delivery system which can complex and stabilize peptides in small particles. Diketopiperazines, particularly fumaryl diketopiperazine (FDKP), self-assemble into microparticles with a mean diameter of about 2 microns. In the process it can entrap or complex with peptides, such as insulin, present in the solution during or after self-assembly. Once dried, these microparticles become a suitable composition for pulmonary delivery to the systemic circulation. When administered by the pulmonary route, Technosphere® particles dissolve in the pH neutral environment of the deep lung and facilitate the rapid and efficient absorption of the peptide into systemic circulation.

Structure (SMILES): O=C(O)/C=C/C(=O)NCCCCC1NC(=O)C(CCCCNC(=O)/C=C/C(=O)O)NC1=O (stereo not shown) [FDKP, 3,6-di(fumaryl-4-aminobutyl)-2,5-diketopiperazine]
- excretion: excreted un-metabolized in the urine within hours of administration
